In assay [1] the target is T1, IDO1 (Homo sapiens, UniProt P14902). Kind of assay: IDO1 Human whole blood Assay. The format is cell-based. On the set-up: Human whole blood was drawn in sodium heparin coated tubes from healthy internal donors; from tissue; host or cells: Human whole blood from healthy donors, stimulated with LPS and IFNγ. To be noted: LPS and IFNγ 100 ng/mL, 18 h, kynurenine by LC/MS/MS. How it is done: Compounds to be tested were serially diluted in ten 3-fold steps in DMSO starting from 10 mM. 3 μL of compound dilutions or DMSO alone were then dispensed from the dilution plate into a polypropylene 96-well assay plate containing 97 μL of RPMI using an Echo 555 acoustic liquid handler (Labcyte). LPS and IFNγ was prepared in RPMI to a 10× of final conc. (1000 ng/mL), final concentration is 100 ng/mL.
T1 sequence (P14902 whole entry): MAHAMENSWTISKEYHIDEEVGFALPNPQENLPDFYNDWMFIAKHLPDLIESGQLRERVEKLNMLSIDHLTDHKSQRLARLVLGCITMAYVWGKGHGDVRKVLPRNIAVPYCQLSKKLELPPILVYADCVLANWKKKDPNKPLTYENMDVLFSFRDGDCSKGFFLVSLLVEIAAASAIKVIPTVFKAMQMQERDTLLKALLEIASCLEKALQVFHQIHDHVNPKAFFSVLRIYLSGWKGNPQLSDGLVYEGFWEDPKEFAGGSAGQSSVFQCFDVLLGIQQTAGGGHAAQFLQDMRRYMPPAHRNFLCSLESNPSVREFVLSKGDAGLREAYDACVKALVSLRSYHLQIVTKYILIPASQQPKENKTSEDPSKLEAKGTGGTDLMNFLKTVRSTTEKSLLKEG
Human whole blood was drawn in sodium heparin coated tubes from healthy internal donors. Two hundred forty μL of blood was transferred to each of the wells of a v-bottom 96 well plate. Thirty μL of compound was transferred from intermediate dilution plate, and incubated for 15 min. Thirty μL from stimulants was then transferred to blood and mixed thoroughly. Plate was covered with breathable membrane and incubated at 37° C. for overnight (18 h).
On day 2 isotope labeled standard of kynurenine and tryptophan was made in water at 10× concentration and 30 μL was added to the blood at 3 μM final concentration. The assay plates were centrifuged at 300×G for 10 min with no brake to separate plasma from red blood cells. Sixty μL of plasma samples was removed without disturbing red blood cells. Plasma was diluted with RPMI in 1:1 ratio and proteins were precipitated out with two volume of acetonitrile. The plates were centrifuged at 4000×G for 60 min. Twenty μL of supernatant was carefully transferred to a 384 well plate containing 40 μL of 0.1% formic acid in water and analyzed by LC/MS/MS.
LC/MS/MS analyses were performed using Thermo Fisher's LX4-TSQ Quantum Ultra system. This system consists of four Agilent binary high-performance liquid chromatography (HPLC) pumps and a TSQ Quantum Ultra triple quadruple MS/MS instrument. For each sample, 5 μL were injected onto an Atlantis T3 column (2.1 mm×150 mm, 3 μm particle size) from Waters. The mobile phase gradient pumped at 0.8 mL/min was used to elute the analytes from the column at 25° C. The elution started at 0% B increasing linearly to 25% B at 6.5 min, holding at 25% for 1 min, re-equilibrating to 10 min. Mobile phase A consisted of 0.1% formic acid in water. Mobile phase B consisted of 0.1% of formic acid in acetonitrile. Data was acquired in positive mode using a HESI interface. The operational parameters for the TSQ Quantum Ultra instrument were a spray voltage of 4000 V, capillary temperature of 380° C., vaporizer temperature 400° C., shealth gas 60 arbitrary units, Aux gas 20 arbitrary units, tube lens 85 and collision gas 1.2 mTorr. SRM chromatograms of kynurenine (Q1: 209.2>Q3:94.0) and internal standard (Q1: 215.3>Q3:98.2) were collected for 90 sec. The peak area was integrated by Xcalibur Quan software. The ratios between the kynurenine generated in the reaction and 2D6-Kynurenine spiked-in internal standard were used to generate percentage inhibition and IC50 values. Compounds were titrated and IC50's were calculated by 4 parameter sigmoidal curve fitting formula.
The biological activity data of selective compounds using the IDO1 human whole blood assay described above are summarized in the table below.

Assay [2] concerns the target T1, IDO1. As to the kind of experiment: IDO1 Cellular Assay in Hela Cells Stimulated with IFNγ. The format is cell-based. The conditions noted are these: IFNγ 100 ng/mL, 300 uM L-tryptophan, about 48 hours, fluorescence readout, read-out: IDO1 HELA Cell Assay, IC50. An outline of the steps: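 HeLa cells stimulated with 100 ng/mL IFNγ, supplemented with 300 uM L-tryptophan, incubated 48 h at 37° C with ten 3-fold compound dilutions. Unstimulated cells served as Max-E control. Kynurenine detected by fluorescence (ex 400/em 510 nm) after overnight methyl isonipecotate reaction; IC50 by four-parameter logistic fit.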

Molecules are shown by their SMILES.

In general, IC50 refers to the concentration at which inhibition is half-maximal. On to `CC(C(=O)Nc1ccc(Cl)nc1)C12CC(NC(=O)c3cccc(Cl)c3)(C1)C2` (single isomer, unassigned) [Example 17, 3-chloro-N-(3-(1-((6-chloropyridin-3-yl)amino)-1-oxopropan-2-yl)bicyclo[1.1.1]pentan-1-yl)benzamide], for which the 50% inhibitory concentration (IC50) at IDO1 [1] turned out to be 0.179 µM; on IDO1 [2] it was 0.00526 µM.

Consider `C[C@H](C(=O)Nc1ccc(F)cc1)C12CC(NC(=O)c3cc(Cl)ccc3F)(C1)C2` [Example 56, 5-chloro-2-fluoro-N-[3-[(1S)-2-(4-fluoroanilino)-1-methyl-2-oxo-ethyl]-1-bicyclo[1.1.1]pentanyl]benzamide], for which the results for the IC50 at IDO1 [1] and at IDO1 [2] were 0.328 µM and 0.00251 µM, respectively.

Turning to `CC(C(=O)Nc1ccc(Cl)nc1)C12CC(NC(=O)c3ccc(Cl)c(Cl)c3)(C1)C2` (single isomer, unassigned) [Example 15, 3,4-dichloro-N-(3-(1-((6-chloropyridin-3-yl)amino)-1-oxopropan-2-yl)bicyclo[1.1.1]pentan-1-yl)benzamide], the results for the IC50 on IDO1 [1] and on IDO1 [2] were 1.1 µM and 0.00446 µM, respectively.

With `CC(C(=O)Nc1ccc(Cl)cc1)C12CC(NC(=O)c3cccc(Cl)c3)(C1)C2` (single isomer, unassigned) [Example 7, 3-Chloro-N-(3-(1-((4-chlorophenyl)amino)-1-oxopropan-2-yl)bicyclo [1.1.1]pentan-1-yl) Benzamide], the IC50 on IDO1 [1] is 0.0482 µM; at IDO1 [2], 0.00105 µM.

In the case of `O=C(NC12CC(C3(NC(=O)c4ccc(F)cc4)CC3)(C1)C2)c1ccc(Cl)c(Cl)c1` [Example 24, 3,4-Dichloro-N-(3-(1-(4-fluorobenzamido)cyclopropyl)bicyclo[1.1.1]pentan-1-yl)benzamide], the IC50 on IDO1 [1] was found to be 0.401 µM; at IDO1 [2], 0.00413 µM.

In the case of `CC(C(=O)Nc1ccc(F)nc1)C12CC(NC(=O)c3ccc(Cl)c(Cl)c3)(C1)C2` (single isomer, unassigned) [Example 14, 3,4-dichloro-N-(3-(1-((6-fluoropyridin-3-yl)amino)-1-oxopropan-2-yl)bicyclo[1.1.1]pentan-1-yl)benzamide], the results for the IC50 against IDO1 [1] and on IDO1 [2] were 0.406 µM and 0.00616 µM, respectively.

Turning to `CC(C(=O)Nc1ccc(F)cc1)C12CC(NC(=O)c3ccc(Cl)c(Cl)c3)(C1)C2` (single isomer, unassigned) [Example 9, 3,4-dichloro-N-(3-(1-((4-fluorophenyl)amino)-1-oxopropan-2-yl)bicyclo[1.1.1]pentan-1-yl)benzamide], the IC50 against IDO1 [1] turned out to be 0.924 µM; on IDO1 [2] it was 0.00155 µM.

Consider `CC(C(=O)Nc1ccc(Cl)c(F)c1)C12CC(NC(=O)c3cccc(Cl)c3)(C1)C2` (single isomer, unassigned) [Example 11, 3-chloro-N-(3-(1-((4-chloro-3-fluorophenyl)amino)-1-oxopropan-2-yl)bicyclo[1.1.1]pentan-1-yl)benzamide], for which the IC50 was determined as 0.525 µM on IDO1 [1] and 0.00157 µM on IDO1 [2].

On to `O=C(NC12CC(C3(C(=O)Nc4ccc(F)cc4)CCC3)(C1)C2)c1ccc(Cl)c(Cl)c1` [Example 5, 3,4-Dichloro-N-(3-(1-((4-fluorophenyl)carbamoyl)cyclobutyl)bicyclo[1.1.1]pentan-1-yl)benzamide], for which the 50% inhibitory concentration (IC50) stood at 0.0447 µM against IDO1 [1] and 0.00212 µM on IDO1 [2].

Consider `CC(C(=O)Nc1ccc(F)cc1)C12CC(NC(=O)c3cccc(Cl)c3)(C1)C2` (single isomer, unassigned) [Example 1, 3-Chloro-N-(3-(1-((4-fluorophenyl)amino)-1-oxopropan-2-yl)bicyclo[1.1.1]pentan-1-yl)benzamide], for which the IC50 on IDO1 [1] was 0.113 µM; at IDO1 [2] it was 0.00305 µM.

Turning to `Cc1ccc(C(=O)NC23CC([C@@H](C)C(=O)Nc4ccc(F)cc4)(C2)C3)cc1Cl` [Example 36, 3-chloro-N-[3-[(1R)-2-(4-fluoroanilino)-1-methyl-2-oxo-ethyl]-1-bicyclo[1.1.1]pentanyl]-4-methyl-benzamide], the IC50 on IDO1 [1] stood at 0.138 µM; on IDO1 [2], 0.00214 µM.

In the case of `C[C@H](C(=O)Nc1ccc(F)cc1)C12CC(NC(=O)c3cc(F)c(F)c(F)c3)(C1)C2` [Example 145, (S)-3,4,5-trifluoro-N-(3-(1-((4-fluorophenyl)amino)-1-oxopropan-2-yl)bicyclo[1.1.1]pentan-1-yl)benzamide], the figures for the half-inhibitory concentration (IC50) on IDO1 [1] and on IDO1 [2] were 0.049 µM and 0.00304 µM, respectively.

With `Cc1cc(C(=O)NC23CC([C@@H](C)C(=O)Nc4ccc(F)cc4)(C2)C3)ccc1F` [Example 46, 4-fluoro-N-[3-[(1R)-2-(4-fluoroanilino)-1-methyl-2-oxo-ethyl]-1-bicyclo[1.1.l]pentanyl]-3-methyl-benzamide], the results for the IC50 against IDO1 [1] and on IDO1 [2] were 0.139 µM and 0.00212 µM, respectively.

For `O=C(NC12CC(C3(C(=O)Nc4ccc(F)cc4)CC3)(C1)C2)c1ccc(Cl)c(Cl)c1` [Example 100, 3,4-Dichloro-N-(3-(1-((4-fluorophenyl)carbamoyl)cyclopropyl)bicyclo[1.1.1]pentan-1-yl)benzamide], the values for the IC50 at IDO1 [1] and at IDO1 [2] were 0.454 µM and 0.00335 µM, respectively.

In the case of `C[C@H](C(=O)Nc1ccc(F)cc1)C12CC(NC(=O)c3ccc(Cl)cc3F)(C1)C2` [Example 52, 4-chloro-2-fluoro-N-[3-[(1S)-2-(4-fluoroanilino)-1-methyl-2-oxo-ethyl]-1-bicyclo[1.1.1]pentanyl]benzamide], the IC50 came to 0.0533 µM on IDO1 [1] and 0.0025 µM on IDO1 [2].

For `CC(C(=O)Nc1ccc(F)cc1)C12CC(NC(=O)c3ccc(Cl)c(Cl)c3)(C1)C2` (single isomer, unassigned) [Example 8, 3,4-dichloro-N-(3-(1-((4-fluorophenyl)amino)-1-oxopropan-2-yl)bicyclo[1.1.1]pentan-1-yl)benzamide], the values for the IC50 against IDO1 [1] and on IDO1 [2] were 0.781 µM and 0.0031 µM, respectively.

Source of the values: patent US11478461B2, “[1.1.1] bicyclo compounds as indoleamine 2,3-dioxygenase inhibitors” (Merck Sharp & Dohme Corp., priority 2018, dated 2022).
